Patent US11214803B2, “Modulators of YAP1 expression” (Ionis Pharmaceuticals, Inc., priority 2019, dated 2022)
pIC50: −log10 of the molar value. Strand notation (5' to 3'): a small letter for the sugar, then the base; units joined by * are phosphorothioate-linked, units joined directly phosphodiester-linked; [ ] holds rarer units or linkages, { } end groups; capitals alone tell only the bases. k = constrained ethyl (cEt); [5mC] = 5-methylcytosine; d = 2'-deoxy (DNA)

Key:
Yap1 mRNA = assay: Dose-dependent inhibition of human Yap1 in A-431 cells (Example 7, 10,000 cells per well, RTS36584); assay type: cell-based; conditions: free uptake; for Yap1 mRNA, % UTC: A-431 cells 10,000 cells per well, 48 hours
Procedure, shortened: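 A-431 cells at 10,000 per well received modified oligonucleotides by free uptake at several doses. After about 48 hours, Yap1 mRNA was quantified with primer-probe set RTS36584, normalized to RIBOGREEN total RNA and expressed as % untreated control. IC50 came from linear regression on a log/linear plot.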

[1] = Tolerability in Balb/c mice, plasma chemistry markers (Example 14); assay type: in vivo; conditions: male Balb/c mice, 50 mg/kg s.c. twice a week for four weeks (8 treatments), day 27
Method: (§1) Balb/c mice were treated with modified oligonucleotides selected from studies described above and evaluated for changes in the levels of various plasma chemistry markers.
(§2) Groups of male Balb/c mice at 5-6 weeks of age (obtained from Taconic) were injected subcutaneously twice a week for four weeks (for a total of 8 treatments) with 50 mg/kg of modified oligonucleotides. One group of male Balb/c mice was injected with PBS. Mice were euthanized on day 27 post start of treatment (24 hours following the final administration).

[2] = Tolerability in Balb/c mice, body and organ weights (Example 14); assay type: in vivo; conditions: male Balb/c mice, 50 mg/kg s.c. twice a week for four weeks (8 treatments); for Kidney weight / Liver weight / Spleen weight: end of study (day 27); for body weight: measured on day 25
Method: Groups of male Balb/c mice at 5-6 weeks of age (obtained from Taconic) were injected subcutaneously twice a week for four weeks (for a total of 8 treatments) with 50 mg/kg of modified oligonucleotides. One group of male Balb/c mice was injected with PBS. […]
Modified oligonucleotides that caused any changes in organ weights outside the expected range for modified oligonucleotides were excluded from further studies.

[3] = Tolerability in Balb/c mice, plasma chemistry markers (Example 10); assay type: in vivo; conditions: male Balb/c mice, 50 mg/kg subcutaneously twice a week for four weeks, day 26
Method: as §1
as §2, with “4-6” for “5-6”, “26” for “27”

[4] = Tolerability in Balb/c mice, body and organ weights (Example 10); assay type: in vivo; conditions: 50 mg/kg subcutaneously twice a week for four weeks, end of study
Method: as §2, with “4-6” for “5-6”, “26” for “27”
Body weights of Balb/c mice were measured at the end of the study, and the average body weight for each group is presented in the table below. Modified oligonucleotides that caused any changes in organ weights outside the expected range for modified oligonucleotides were excluded from further studies.

[5] = system: subcutaneous DEN carcinomas; assay: Tumor volume in DEN-HCC model, in combination with a-PD1 antibody (Example 49); assay type: in vivo, C57BL/6 mice; conditions: DEN-HCC subcutaneous model, C57BL/6 mice
Method: N-nitrosodiethylamine (DEN) is administered at 25 mg/kg into 15 day old C57/BL6 mice. Carcinomas form 6 months post injection. After formation, carcinomas were then dissected from the liver and passaged subcutaneously into C57BL/6 male mice at 4-6 weeks of age to establish a subcutaneous model. For this experiment, mice were passaged with P8 subcutaneously established DEN carcinomas, rendering P9 for the duration of the experiment. Subcutaneous carcinomas are found to form at 4-6 weeks post implantation. Modified oligonucleotides 792169 (control compound) and 715491 (YAP-1 targeting modified oligonucleotide) were treated subcutaneously into groups of 7-8 mice at 10 mg/kg/week 5 times a week for 11 weeks (total of 55 doses). The PBS-only treated group and the control group were treated 5 times a week for 4 weeks (total of 20 doses). α-PD1 antibody (BioXCell) was treated intraperitoneally at 10 mg/kg/week twice a week for 4 weeks (total of 8 doses). F.D. refers to mice that were sacrificed because their tumor volume became too large.

[6] = Table 61, A-431 cells 10,000 cells per well
[7] = Table 56, A-431 cells 10,000 cells per well
[8] = Table 58, A-431 cells 10,000 cells per well

## 958739 (kA*kG*k[5mC]*dA*dA*dT*dA*dG*dA*dG*dT*dA*dA*k[5mC]*k[5mC]*kA; antisense) [compound 958739]
Yap1 mRNA; Table 61, 15.6 nM
  Yap1 mRNA, % UTC: 77 % UTC
Yap1 mRNA; Table 61, 62.5 nM
  Yap1 mRNA, % UTC: 46 % UTC
Yap1 mRNA; Table 61, 4000.00 nM
  Yap1 mRNA, % UTC: 7 % UTC
Yap1 mRNA; [6]
  pIC50: 7.00
[1]
  ALT: 145 U/L
  AST: 186 U/L
  BUN: 21 mg/dL
  TBIL: 0.21 mg/dL
[2]
  Kidney weight: 0.36 g
  Liver weight: 1.58 g
  Spleen weight: 0.13 g
  body weight: 24 g

## 715491 (kA*kA*k[5mC]*d[5mC]*dA*dA*d[5mC]*dT*dA*dT*dT*dA*d[5mC]*kT*kT*k[5mC]) [compound 715491]
Yap1 mRNA; Table 56, 15.6 nM
  Yap1 mRNA, % UTC: 92 % UTC
Yap1 mRNA; Table 56, 62.5 nM
  Yap1 mRNA, % UTC: 83 % UTC
Yap1 mRNA; Table 56, 4000.00 nM
  Yap1 mRNA, % UTC: 28 % UTC
Yap1 mRNA; [7]
  pIC50: 6.57
[3]
  ALT (U/L): 33 U/L
  AST (U/L): 48 U/L
  TBIL: 0.11 mg/dL
[4]
  Kidney weight: 0.32 g
  Liver weight: 1.03 g
  Spleen weight: 0.12 g
  body weight: 22 g
[5]; day 1 on treatment
  Average Tumor Volume: 356 mm3
[5]; day 5 on treatment
  Average Tumor Volume: 417 mm3
[5]; day 8 on treatment
  Average Tumor Volume: 463 mm3
[5]; day 11 on treatment
  Average Tumor Volume: 461 mm3
[5]; day 15 on treatment
  Average Tumor Volume: 523 mm3
[5]; day 18 on treatment
  Average Tumor Volume: 526 mm3
[5]; day 23 on treatment
  Average Tumor Volume: 658 mm3
[5]; day 25 on treatment
  Average Tumor Volume: 659 mm3
[5]; day 28 on treatment
  Average Tumor Volume: 661 mm3
[5]; day 31 on treatment
  Average Tumor Volume: 740 mm3
[5]; day 35 on treatment
  Average Tumor Volume: 798 mm3
[5]; day 38 on treatment
  Average Tumor Volume: 741 mm3
[5]; day 43 on treatment
  Average Tumor Volume: 723 mm3
[5]; day 45 on treatment
  Average Tumor Volume: 741 mm3
[5]; day 49 on treatment
  Average Tumor Volume: 765 mm3
[5]; day 54 on treatment
  Average Tumor Volume: 780 mm3
[5]; day 58 on treatment
  Average Tumor Volume: 852 mm3
[5]; day 61 on treatment
  Average Tumor Volume: 925 mm3
[5]; day 65 on treatment
  Average Tumor Volume: 896 mm3
[5]; day 68 on treatment
  Average Tumor Volume: 940 mm3
[5]; day 72 on treatment
  Average Tumor Volume: 953 mm3
[5]; day 75 on treatment
  Average Tumor Volume: 985 mm3
[5]; day 79 on treatment
  Average Tumor Volume: 960 mm3

## 958534 (kT*kT*k[5mC]*dA*dG*d[5mC]*dA*dT*dA*dG*dA*dA*dG*kT*kA*kG; antisense) [compound 958534]
Yap1 mRNA; Table 61, 15.6 nM
  Yap1 mRNA, % UTC: 85 % UTC
Yap1 mRNA; Table 61, 62.5 nM
  Yap1 mRNA, % UTC: 48 % UTC
Yap1 mRNA; Table 61, 4000.00 nM
  Yap1 mRNA, % UTC: 9 % UTC
Yap1 mRNA; [6]
  pIC50: 7.00
[1]
  ALT: 1962 U/L
  AST: 1617 U/L
  BUN: 26 mg/dL
  TBIL: 0.33 mg/dL
[2]
  Kidney weight: 0.32 g
  Liver weight: 1.81 g
  Spleen weight: 0.09 g
  body weight: 22 g

## 958596 (kA*kG*k[5mC]*dA*dG*dT*dT*dA*dA*dG*d[5mC]*dA*d[5mC]*kT*kT*kT; antisense) [compound 958596]
Yap1 mRNA; Table 56, 15.6 nM
  Yap1 mRNA, % UTC: 69 % UTC
Yap1 mRNA; Table 56, 62.5 nM
  Yap1 mRNA, % UTC: 38 % UTC
Yap1 mRNA; Table 56, 4000.00 nM
  Yap1 mRNA, % UTC: 7 % UTC
Yap1 mRNA; [7]
  pIC50: 7.40
[1]
  ALT: 207 U/L
  AST: 162 U/L
  BUN: 24 mg/dL
  TBIL: 0.23 mg/dL
[2]
  Kidney weight: 0.36 g
  Liver weight: 2.11 g
  Spleen weight: 0.13 g
  body weight: 25 g

## 958622 (kG*kA*kT*dA*dT*dT*d[5mC]*d[5mC]*dG*d[5mC]*dA*dT*dT*kG*k[5mC]*k[5mC]; antisense) [compound 958622]
Yap1 mRNA; Table 58, 15.6 nM
  Yap1 mRNA, % UTC: 79 % UTC
Yap1 mRNA; Table 58, 62.5 nM
  Yap1 mRNA, % UTC: 50 % UTC
Yap1 mRNA; Table 58, 4000.00 nM
  Yap1 mRNA, % UTC: 7 % UTC
Yap1 mRNA; [8]
  pIC50: 7.00
[1]
  ALT: 224 U/L
  AST: 254 U/L
  BUN: 23 mg/dL
  TBIL: 0.24 mg/dL
[2]
  Kidney weight: 0.33 g
  Liver weight: 0.92 g
  Spleen weight: 0.12 g
  body weight: 23 g

## 958497 (kA*kT*kA*dT*dG*dG*dA*dA*dA*dT*dT*dG*dT*k[5mC]*kT*k[5mC]) [compound 958497]
Yap1 mRNA; Table 58, 15.6 nM
  Yap1 mRNA, % UTC: 82 % UTC
Yap1 mRNA; Table 58, 62.5 nM
  Yap1 mRNA, % UTC: 35 % UTC
Yap1 mRNA; Table 58, 4000.00 nM
  Yap1 mRNA, % UTC: 3 % UTC
Yap1 mRNA; [8]
  pIC50: 7.00
[1]
  ALT: 46 U/L
  AST: 151 U/L
  BUN: 26 mg/dL
  TBIL: 0.24 mg/dL
[2]
  Kidney weight: 0.35 g
  Liver weight: 1.31 g
  Spleen weight: 0.11 g
  body weight: 23 g

## 958589 (kG*kT*kA*dA*dA*dG*dG*dA*dA*dG*dA*dT*d[5mC]*kT*k[5mC]*k[5mC]; antisense) [compound 958589]
Yap1 mRNA; Table 61, 15.6 nM
  Yap1 mRNA, % UTC: 75 % UTC
Yap1 mRNA; Table 61, 62.5 nM
  Yap1 mRNA, % UTC: 50 % UTC
Yap1 mRNA; Table 61, 4000.00 nM
  Yap1 mRNA, % UTC: 8 % UTC
Yap1 mRNA; [6]
  pIC50: 7.00
[1]
  ALT: 35 U/L
  AST: 66 U/L
  BUN: 24 mg/dL
  TBIL: 0.21 mg/dL
[2]
  Kidney weight: 0.37 g
  Liver weight: 1.40 g
  Spleen weight: 0.10 g
  body weight: 25 g
